Source: article PMC6037691, “Selenazolyl-hydrazones as Novel Selective MAO Inhibitors With Antiproliferative and Antioxidant Activities: Experimental and In-silico Studies” (Frontiers in Chemistry, 2018)

Key:
WiDr (colon) = assay: Antiproliferative activity, WiDr; assay type: cell-based, human; details: for GI50: Homo sapiens
Method: (§1) The in vitro antiproliferative activity of investigated compounds was evaluated against six human solid tumor cell lines: A549 (non-small cell lung), HBL-100, (breast), HeLa (cervix), SW1573 (non-small cell lung), as drug sensitive lines, T-47D (breast) and WiDr (colon) as drug resistant lines. These cell lines were a kind gift from Prof. G. J. Peters (VU Medical Center, Amsterdam, The Netherlands). For selectivity studies, the human fibroblasts BJ-hTert cell line was used, which was obtained from Dr. R. Freire (HUC, Tenerife, Canary Islands). Cells were kept in culture medium under standard conditions: RPMI 1640 medium, fetal bovine serum (5%), glutamine (2 mM), penicillin G (100 units/mL) and streptomycin (0.1 mg/mL). Antiproliferative tests were conducted as described earlier (Skehan et al., [1990]; Miranda et al., [2006]). Tested compounds were dissolved in DMSO at an initial concentration of 40 mM. DMSO was used as negative control (0.25% v/v). Antiproliferative activity of the compounds was expressed as GI50, which is the concentration of the compound that inhibits 50% of the culture growth.

[1] = tested on: human fibroblasts BJ-hTert cell line; assay: Selectivity, non-transformed fibroblasts BJ-hTert; assay type: cell-based; details: Fibroblast; BJ-hTert normal human cell line; concentrations up to 100 μM
Method: as §1

T-47D (breast) = assay: Antiproliferative activity, T-47D; assay type: cell-based, human; details: for GI50: Homo sapiens, T47D
Method: as §1

[2] = tested on: SW1573 (non-small cell lung); assay: Antiproliferative activity, SW1573; assay type: cell-based, human; details: Homo sapiens
Method: as §1

[3] = tested on: A549 (non-small cell lung); assay: Antiproliferative activity, A549; assay type: cell-based, human; details: Homo sapiens
Method: as §1

HBL-100 (breast) = assay: Antiproliferative activity, HBL-100; assay type: cell-based, human; details: Homo sapiens
Method: as §1

HeLa (cervix) = assay: Antiproliferative activity, HeLa; assay type: cell-based, human; details: Homo sapiens
Method: as §1

[4] = tested on: six human solid tumor cell lines; assay: Antiproliferative activity, panel as a whole; assay type: cell-based; design: key: moderate activity (GI50 = 10–100 μM); good activity (GI50 = 1–10 μM); inactive (GI50 > 100 μM)
Method: as §1

[5] = DPPH scavenging antioxidant assay; details: concentration providing 50% of radicals scavenging activity; mean ± SD, n = 3
Method: The experiments were performed according to the literature protocol (Prior et al., [2005]). All tested compounds were initially dissolved in DMSO. The initial concentration of DPPH in methanol was 6.58 × 10^−5 M. A volume of 140 μL of DPPH solution was placed into a 96-well microplate, and then 10 μL solution of the tested compounds was added. Pure DMSO (10 μL) was used as the control. The absorbance at 517 nm was measured after 30 min period of incubation in the dark at 25°C. The Equation (1) was used for calculation of the scavenging activity:
(1) Scavenging activity (%)=Acontrol- Asample/Acontrol×100
where Asample and Acontrol refer to the absorbances at 517 nm of the sample and control, respectively. IC50 values were calculated from the graph of scavenging activity against the concentrations of the samples. IC50 represents the total antioxidant concentration of the sample which decreases the amount of the initial DPPH radical by 50%. Ascorbic acid (vitamin C) was used as positive control (concentration range 10–500 μM).

[6] = Total antioxidant capacity (TAOC), modified phosphomolybdenum method; details: concentration providing 0.500 of absorbance at 695 nm; mean ± SD, n = 3
Method: (§2) Volume of 0.4 mL of sample solution (50–1,000 μM) was mixed with 1.6 mL of reagent solution [0.6 M H2SO4, 28 mM Na3PO4, and 4 mM (NH4)2MoO4] and resulting mixtures were incubated at 95°C for 90 min. The cooled reaction mixtures were then centrifuged for 10 min (3,000 rpm). The absorbance of the supernatant solution was measured, 1 h after centrifugation, at 695 nm against reagent solution as blank. An increased absorbance in reading in both assays indicated increased antioxidant power, expressed as EC50 values (the sample concentration giving absorbance of 0.500 from the graph of absorbance at 700 nm or 695 nm against compound concentration) (Prieto et al., [1999]).

MAO A = target: T1, MAO A (Homo sapiens, UniProt P21397); assay: MAO A inhibition, discontinuous fluorimetric kynuramine assay; assay type: biochemical; details: for inhibition at 1 µM: 1 μM inhibitor, mean ± SD, n = 2, normalized to control
T1 construct: purchased Sigma-Aldrich
T1 sequence (P21397 1-527): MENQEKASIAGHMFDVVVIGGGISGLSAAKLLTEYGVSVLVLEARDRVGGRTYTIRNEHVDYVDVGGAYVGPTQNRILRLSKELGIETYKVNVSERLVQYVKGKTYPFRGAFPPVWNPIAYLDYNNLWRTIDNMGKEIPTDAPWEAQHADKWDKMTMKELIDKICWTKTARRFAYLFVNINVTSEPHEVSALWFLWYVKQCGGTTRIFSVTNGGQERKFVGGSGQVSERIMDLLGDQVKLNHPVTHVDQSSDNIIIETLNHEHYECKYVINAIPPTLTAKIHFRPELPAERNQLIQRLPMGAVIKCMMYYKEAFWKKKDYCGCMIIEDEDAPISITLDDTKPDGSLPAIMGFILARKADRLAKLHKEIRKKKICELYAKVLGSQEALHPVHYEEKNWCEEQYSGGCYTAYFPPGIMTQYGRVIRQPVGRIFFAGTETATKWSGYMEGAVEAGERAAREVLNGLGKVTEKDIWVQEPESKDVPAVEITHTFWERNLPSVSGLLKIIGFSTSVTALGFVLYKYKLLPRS
Method: (§3) MAO A and B inhibition capacities were investigated using a discontinuous fluorimetric assay (Meiring et al., [2013]) as described previously by using human recombinant membrane-bound MAO purchased from Sigma-Aldrich (Affini et al., [2018]). Briefly, remained enzyme activity with inhibitor, either 1 μM (one-point) or concentrations ranging from 0.0001 to 10 μM, was assessed in the presence of kynuramine [2 × KM, KM = 20 μM (MAO A), KM = 30 μM (MAO B)] in potassium phosphate buffer (pH 7.4). Reactions were started by addition of enzyme and stopped by manual addition of sodium hydroxide (2 N) after 20 min. Enzyme activity was determined by detection of 4-hydroxyquinoline (λEx = 320 nm, λEm = 405 nm). Data were analyzed using GraphPad PRISM 6. For one-point measurements data were calculated as percentage of control and expressed as mean ± standard deviation (%). […] Data were obtained from two (one-point measurements) or at least three (IC50 values) independent experiments, each performed in duplicates.

[7] = Total reducing power (TRP), modified potassium ferricyanide reduction method; details: concentration providing 0.500 of absorbance at 700 nm; mean ± SD, n = 3
Method: The mixture containing 0.5 mL of phosphate buffer (0.2 M, pH = 6.6), 0.5 mL of K3[Fe(CN)6] (1%; w/v) and 0.5 mL of the samples (100–1,500 μM) was incubated at 50°C for 20 min. A volume of 0.5 mL of trichloroacetic acid (TCA, 10%; w/v), 0.5 mL of Milli-Q water and 0.5 mL of FeCl3 (0.1%; w/v) was added, followed by intensive vortexing. The absorbance of the resulting mixture was measured after 60 min at 700 nm using phosphate buffer as blank (Oyaizu, [1986]).
as §2

MAO B = target: T2, MAO B (Homo sapiens, UniProt P27338); assay: MAO B inhibition, discontinuous fluorimetric kynuramine assay; assay type: biochemical; details: for inhibition at 1 µM: 1 μM inhibitor, mean ± SD, n = 2, normalized to control
T2 construct: purchased Sigma-Aldrich
T2 sequence (P27338 1-520): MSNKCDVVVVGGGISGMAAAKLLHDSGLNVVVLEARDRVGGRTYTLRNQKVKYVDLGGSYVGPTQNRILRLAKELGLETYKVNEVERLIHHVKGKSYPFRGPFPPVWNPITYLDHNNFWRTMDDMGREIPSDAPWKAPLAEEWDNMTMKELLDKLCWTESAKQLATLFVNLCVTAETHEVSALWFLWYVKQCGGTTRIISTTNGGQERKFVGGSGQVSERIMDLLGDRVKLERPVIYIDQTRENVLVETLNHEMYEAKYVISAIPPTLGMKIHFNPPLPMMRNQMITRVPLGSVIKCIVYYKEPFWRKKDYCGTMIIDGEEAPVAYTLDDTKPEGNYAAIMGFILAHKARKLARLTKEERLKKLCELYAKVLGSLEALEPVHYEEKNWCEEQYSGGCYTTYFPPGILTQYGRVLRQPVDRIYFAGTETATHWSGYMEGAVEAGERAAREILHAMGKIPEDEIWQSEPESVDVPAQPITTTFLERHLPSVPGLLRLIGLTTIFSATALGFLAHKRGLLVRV
Method: as §3

[8] = mean, 95% CI, at least three experiments

GI50 (T-47D (breast)) [µM] | SMILES | GI50 (WiDr (colon)) [µM] | GI50 [1] [µM] | GI50 [2] [µM] | GI50 [3] [µM] | GI50 (HBL-100 (breast)) [µM] | GI50 (HeLa (cervix)) [µM] | antiproliferative activity class against five cell lines ([4]; five cell lines of the six) | IC50 [5] [µM] | melting point [°C] | EC50 [6] [µM] | GI50 (T-47D (breast); T-47D) [µM] | inhibition at 1 µM (MAO A) [%] | EC50 [7] [µM] | inhibition at 1 µM (MAO B) [%] | antiproliferative activity class WiDr (WiDr (colon)) | antiproliferative activity class T-47D (T-47D (breast); T-47D) | IC50 (MAO A; [8]) [µM] | IC50 (MAO B; [8]) [µM] | antiproliferative activity class against all six cell lines ([4]; all six cell lines)
47 ± 18 | O=c1[nH]cc(F)c(=O)[nH]1 [5-fluorouracil, reference compound] | 49 ± 6.7 | 5.5 ± 0.5 | 4.6 ± 1.5 | > 100 | 4 ± 0.7 | 15 ± 4.7 |  |  |  |  |  |  |  |  |  |  |  |  | 
 | Cc1ccc(-c2c[se]c(NN=Cc3ccccc3)n2)cc1 [Compound 1-Me, 2-(2-benzylidenehydrazinyl)-4-(p-tolyl)-1,3-selenazole] | > 100 | > 100 | 47 ± 3 | > 100 | > 100 | > 100 | inactive | 45.1 ± 6.53 | 174 to 176 | 603 ± 61 | > 100 | 12.7 ± 3.5 | 966 ± 88 | 23.4 ± 17.1 |  |  |  |  | 
 | O=[N+]([O-])c1ccc(C=NNc2nc(-c3ccccc3)c[se]2)cc1 [Compound 4, 2-(2-(4-nitrobenzylidene)hydrazinyl)-4-phenyl-1,3-selenazole] | 6.9 ± 1.3 | > 100 | 23 ± 1.2 | 16 ± 3.5 | > 100 | 31 ± 8.5 |  | 44.8 ± 2.3 |  | 433 ± 43 | 6.3 ± 1.1 | 71.9 ± 3.5 | 376 ± 51 | 96.3 ± 0.5 | good activity (good activity (GI50 = 1–10 μM)) | good activity (good activity (GI50 = 1–10 μM)) | 0.258 | 0.073 | 
 | Cc1ccc(-c2c[se]c(NN=Cc3ccc([N+](=O)[O-])cc3)n2)cc1 [Compound 4-Me, 2-(2-(4-nitrobenzylidene)hydrazinyl)-4-(p-tolyl)-1,3-selenazole] | > 100 | > 100 | > 100 | > 100 | > 100 | > 100 |  | 40.1 ± 4.7 | 228 to 230 | 579 ± 51 | > 100 | 22.1 ± 2.1 | 495 ± 48 | 48.1 ± 2.9 |  |  |  |  | inactive
 | COc1ccc(-c2c[se]c(NN=Cc3ccc([N+](=O)[O-])cc3)n2)cc1 [Compound 4-OMe, 4-(4-methoxyphenyl)-2-(2-(4-nitrobenzylidene)hydrazinyl)-1,3-selenazole] | > 100 | > 100 | 26 ± 17 | 16 ± 5.3 | 47 ± 13 | 33 ± 10 |  | 79.2 ± 3.9 | 208 to 211 | 645 ± 53 | 66 ± 17 | 49.4 ± 1.3 | 398 ± 44 | 42.5 ± 19 |  |  |  |  | 
 | O=C1O[C@H]([C@@H](O)CO)C(O)=C1O [vitamin C, Ascorbic acid, reference compound] |  |  |  |  |  |  |  | 79.1 ± 1.8 |  | 140 ± 10 |  |  | 155 ± 39 |  |  |  |  |  | 
